Measurements: ChEMBL document CHEMBL1201862, “PubChem BioAssay data set” (2004)
Blank lines part the entries; values can stand above or below the compound they belong to. Activity calls are given as the source filed them.

Key:
[1] = molecular target: T1, DNA repair and recombination protein RAD54-like (Homo sapiens, UniProt Q92698); test: inhibitors of human RAD54 branch migration, confirmation, biochemical, fluorescence, cherry-picked samples, dose series (AID 651657); assay type: functional
T1 sequence (Q92698 whole entry): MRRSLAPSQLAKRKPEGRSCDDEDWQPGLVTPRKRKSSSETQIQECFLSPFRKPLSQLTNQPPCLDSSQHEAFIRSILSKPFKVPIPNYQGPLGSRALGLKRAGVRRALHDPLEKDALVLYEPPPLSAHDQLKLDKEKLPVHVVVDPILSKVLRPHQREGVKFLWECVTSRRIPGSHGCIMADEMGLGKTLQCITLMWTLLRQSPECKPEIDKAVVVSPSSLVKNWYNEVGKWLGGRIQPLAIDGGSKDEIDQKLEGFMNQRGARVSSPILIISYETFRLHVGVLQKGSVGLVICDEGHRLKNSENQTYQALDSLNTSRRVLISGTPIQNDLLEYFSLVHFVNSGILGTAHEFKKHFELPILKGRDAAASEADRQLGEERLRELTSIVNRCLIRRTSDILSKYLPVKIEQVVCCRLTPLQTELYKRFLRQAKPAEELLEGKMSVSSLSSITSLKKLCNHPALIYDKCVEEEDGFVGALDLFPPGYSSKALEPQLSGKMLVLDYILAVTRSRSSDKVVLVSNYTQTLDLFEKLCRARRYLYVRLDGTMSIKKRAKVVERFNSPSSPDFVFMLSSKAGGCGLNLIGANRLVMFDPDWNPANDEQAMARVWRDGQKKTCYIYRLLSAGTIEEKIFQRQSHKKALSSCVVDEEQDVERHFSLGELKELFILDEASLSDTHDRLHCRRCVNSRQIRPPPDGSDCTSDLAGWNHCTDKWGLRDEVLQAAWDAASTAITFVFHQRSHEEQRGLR

[2] = molecular target: T2, DNA repair protein RAD52 homolog (Homo sapiens, UniProt P43351); assay type: functional, biochemical
T2 sequence (P43351 whole entry): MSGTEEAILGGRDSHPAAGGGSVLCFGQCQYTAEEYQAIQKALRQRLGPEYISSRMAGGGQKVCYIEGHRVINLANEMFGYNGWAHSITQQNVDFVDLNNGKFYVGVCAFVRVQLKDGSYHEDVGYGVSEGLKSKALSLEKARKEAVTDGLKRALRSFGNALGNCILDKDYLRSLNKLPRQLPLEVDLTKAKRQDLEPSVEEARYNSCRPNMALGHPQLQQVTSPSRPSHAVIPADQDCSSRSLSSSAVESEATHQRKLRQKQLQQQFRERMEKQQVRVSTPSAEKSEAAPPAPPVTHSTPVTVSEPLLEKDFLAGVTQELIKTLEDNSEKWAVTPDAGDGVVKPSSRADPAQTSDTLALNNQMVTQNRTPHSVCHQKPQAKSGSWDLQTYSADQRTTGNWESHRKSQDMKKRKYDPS

[3] = growth suppression of beta-catenin-knockout colon cells, dose response, cell-based, HCT116, human colon tumor (AID 1045); assay type: functional;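 note: HCT116 colon tumor cells with beta catenin knocked out; cells exposed to compound for 60 hours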
[4] = growth suppression of PTEN-null colon cells, dose response, cell-based, HCT116 PTEN knockout (AID 1047); assay type: functional;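 note: HCT116 colon tumor cells with PTEN knocked out; cells exposed to compound for 60 hours before readout; potency for loss of cell viability measured by luminescence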
[5] = molecular target: T3, Polyadenylate-binding protein 1 (Homo sapiens, UniProt P11940); test: PABP1 MLLE–PAM2 interaction inhibitors, dose response, miRNA deadenylation inhibitor project, biochemical, fluorescence polarization, Cy5-PAM2 peptide, secondary (AID 602260); assay type: functional; conditions: read-out: IC50_Mean
T3 sequence (P11940 whole entry): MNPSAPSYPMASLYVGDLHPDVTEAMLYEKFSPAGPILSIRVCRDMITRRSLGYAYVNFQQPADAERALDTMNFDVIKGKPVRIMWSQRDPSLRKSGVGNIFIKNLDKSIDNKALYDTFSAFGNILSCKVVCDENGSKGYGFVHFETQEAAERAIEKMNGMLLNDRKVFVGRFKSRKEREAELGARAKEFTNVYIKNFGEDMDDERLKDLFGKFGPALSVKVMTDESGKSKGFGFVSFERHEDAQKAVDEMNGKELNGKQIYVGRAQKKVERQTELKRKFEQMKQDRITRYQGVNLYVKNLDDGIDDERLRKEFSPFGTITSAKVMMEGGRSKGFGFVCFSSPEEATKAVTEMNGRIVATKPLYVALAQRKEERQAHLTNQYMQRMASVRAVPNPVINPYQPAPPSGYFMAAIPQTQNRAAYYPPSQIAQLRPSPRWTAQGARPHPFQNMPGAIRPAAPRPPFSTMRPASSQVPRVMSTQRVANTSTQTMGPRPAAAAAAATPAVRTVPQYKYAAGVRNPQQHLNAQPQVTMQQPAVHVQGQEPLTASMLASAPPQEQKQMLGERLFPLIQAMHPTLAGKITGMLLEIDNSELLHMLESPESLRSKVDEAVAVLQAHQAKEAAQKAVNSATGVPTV

[6] = molecular target: T3, Polyadenylate-binding protein 1; test: PABP1 MLLE–PAM2 binding inhibitor potency, dose response, biochemical, fluorescence polarization, FITC-PAM2 peptide (AID 602259); assay type: functional; conditions: read-out: IC50_Mean
[7] = molecular target: T4, Short transient receptor potential channel 4 (Mus musculus, UniProt Q9QUQ5); test: mouse TRPC4 channel inhibitors, dose response, cell-based, HEK293 TRPC4/mu-opioid, Fluo-4 calcium (AID 434942); assay type: functional;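 note: potency of inhibitors blocking the TRPC4 calcium response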
T4 sequence (Q9QUQ5 whole entry): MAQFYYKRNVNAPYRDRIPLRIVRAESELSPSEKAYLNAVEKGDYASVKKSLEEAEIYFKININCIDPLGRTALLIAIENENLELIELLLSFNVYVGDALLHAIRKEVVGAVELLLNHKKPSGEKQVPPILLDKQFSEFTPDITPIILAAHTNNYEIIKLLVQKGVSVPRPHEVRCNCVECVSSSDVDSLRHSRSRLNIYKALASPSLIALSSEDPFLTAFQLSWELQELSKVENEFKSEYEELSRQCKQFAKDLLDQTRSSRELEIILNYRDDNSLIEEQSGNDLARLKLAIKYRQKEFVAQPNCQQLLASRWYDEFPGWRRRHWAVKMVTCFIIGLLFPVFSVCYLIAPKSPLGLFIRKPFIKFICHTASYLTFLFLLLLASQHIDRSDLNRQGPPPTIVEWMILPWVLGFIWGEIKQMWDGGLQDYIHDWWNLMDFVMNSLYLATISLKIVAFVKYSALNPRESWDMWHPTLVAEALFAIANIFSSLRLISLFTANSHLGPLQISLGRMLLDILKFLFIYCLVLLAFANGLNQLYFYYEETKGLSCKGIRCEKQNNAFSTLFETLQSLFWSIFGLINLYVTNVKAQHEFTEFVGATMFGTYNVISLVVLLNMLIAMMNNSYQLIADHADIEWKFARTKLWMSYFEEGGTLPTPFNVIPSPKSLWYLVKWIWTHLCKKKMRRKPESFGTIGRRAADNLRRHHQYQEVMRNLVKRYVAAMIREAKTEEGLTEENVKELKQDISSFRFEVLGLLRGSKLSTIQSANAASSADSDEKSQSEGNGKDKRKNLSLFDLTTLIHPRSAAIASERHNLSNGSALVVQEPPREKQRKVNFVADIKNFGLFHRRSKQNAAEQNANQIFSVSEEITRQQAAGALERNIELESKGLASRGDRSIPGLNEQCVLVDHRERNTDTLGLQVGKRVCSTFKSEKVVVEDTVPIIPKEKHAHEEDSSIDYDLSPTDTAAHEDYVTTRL

IC50 [5]: > 66 µM (inactive)
IC50 [6]: > 66 µM (inactive)
SMILES: CCOC(=O)c1cc(-c2ccc(OC)cc2)nc2c1c(C)nn2CCC(N)=S

EC50 [7]: 4.73 µM (active)
SMILES: O=C(NCCN1CCOCC1)c1ccc2c(c1)N(Cc1ccc(F)cc1)C(=O)CS2

EC50 [7]: 0.531 µM (active)
SMILES: Brc1ccc(CN2C3=NCCCN3c3ccccc32)cc1

More lines, now with the values behind:

SMILES: CN(C)CCCNc1nc2cc(-c3ccc4c(ccn4C)c3)sc2c(=O)n1C
AC50 [1]: 28.7 µM (active)
AC50 [2]: 4.02 µM (active)

SMILES: N#Cc1ccc(-c2ccc(F)cc2)nc1Sc1ccc(F)cc1
EC50 [3]: 28.7 µM (active)
EC50 [4]: 20.6 µM (active)

SMILES: CCCCN(C)CCNC(=O)c1cc2cc3ccc(OC)cc3nc2o1
AC50 [1]: 50.9 µM (active)

SMILES: Cc1ccc(C)c2nc3sc(C(=O)O)cc3cc12
EC50 [7]: 5.31 µM (active)

SMILES: Cc1ccc(C(=O)NC(=S)Nc2c(C)ccc3nsnc23)cc1
EC50 [7]: 5.96 µM (active)
